Assay results as given in publication PMC4094369 (Biochemical and biophysical research communications, 2013).
Where “and” joins values, the source holds several entries; their conditions need not be identical. Equal values may be shown once. Entries after “also recorded” stand apart in the source; their conditions may differ. Where a name gives a salt, the structure may show the parent alone. Read-outs that look alike come from different tables or passages of the source.

What was measured:
glutaminase = target: T1, glutaminase (Homo sapiens, UniProt O94925); experiment: Glutaminase activity of analogs; format: biochemical; conditions: for retention of biological (glutaminase) activity: analogs of chelerythrine, in words
T1 sequence (O94925 124-669 limits assumed): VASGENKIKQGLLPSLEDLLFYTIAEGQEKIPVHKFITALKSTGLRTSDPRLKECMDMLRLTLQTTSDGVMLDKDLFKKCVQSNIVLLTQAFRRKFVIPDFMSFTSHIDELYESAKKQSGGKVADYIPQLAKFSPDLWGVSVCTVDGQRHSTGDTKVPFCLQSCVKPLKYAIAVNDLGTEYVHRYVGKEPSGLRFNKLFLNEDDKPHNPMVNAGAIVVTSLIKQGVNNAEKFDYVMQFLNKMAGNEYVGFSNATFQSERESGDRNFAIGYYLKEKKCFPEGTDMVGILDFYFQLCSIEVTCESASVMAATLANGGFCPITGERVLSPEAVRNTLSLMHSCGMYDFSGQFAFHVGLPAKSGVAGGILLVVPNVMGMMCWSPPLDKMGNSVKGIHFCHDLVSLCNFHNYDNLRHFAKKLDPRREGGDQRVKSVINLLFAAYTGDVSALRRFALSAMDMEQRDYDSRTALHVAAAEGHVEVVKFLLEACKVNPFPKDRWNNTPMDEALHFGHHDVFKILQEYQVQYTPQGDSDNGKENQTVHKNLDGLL

[1] = target: T2, mouse c-type glutaminase (mGAC) (Mus musculus, UniProt D3Z7P3); experiment: Glutaminase activity, Amplex UltraRed fluorescent assay; format: biochemical
T2 sequence (D3Z7P3 55-603 isoform D3Z7P3-2 limits assumed): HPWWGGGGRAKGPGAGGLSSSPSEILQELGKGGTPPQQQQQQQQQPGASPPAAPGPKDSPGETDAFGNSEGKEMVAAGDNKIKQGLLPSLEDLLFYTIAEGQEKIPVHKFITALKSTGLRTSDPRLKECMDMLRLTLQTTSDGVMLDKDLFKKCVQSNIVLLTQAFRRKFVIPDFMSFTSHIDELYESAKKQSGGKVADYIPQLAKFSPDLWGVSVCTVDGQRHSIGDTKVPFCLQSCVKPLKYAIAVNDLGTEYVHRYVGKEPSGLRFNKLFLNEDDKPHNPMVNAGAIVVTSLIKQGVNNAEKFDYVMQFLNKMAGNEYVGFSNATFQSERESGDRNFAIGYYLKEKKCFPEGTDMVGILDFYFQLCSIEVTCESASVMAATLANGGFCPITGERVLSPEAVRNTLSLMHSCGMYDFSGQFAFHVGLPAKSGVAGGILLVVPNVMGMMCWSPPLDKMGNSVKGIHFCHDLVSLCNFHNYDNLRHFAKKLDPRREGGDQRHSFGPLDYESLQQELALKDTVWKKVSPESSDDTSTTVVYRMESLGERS

[2] = target: T3, mouse liver glutaminase (mLGA) (Mus musculus, UniProt Q571F8); experiment: as above; format: biochemical; conditions: for activity against GLS2 (mLGA) relative to GLS1 isoforms: fold less activity against GLS2 than GLS1 (hKGAΔ1, mGAC)
T3 sequence (Q571F8 15-602): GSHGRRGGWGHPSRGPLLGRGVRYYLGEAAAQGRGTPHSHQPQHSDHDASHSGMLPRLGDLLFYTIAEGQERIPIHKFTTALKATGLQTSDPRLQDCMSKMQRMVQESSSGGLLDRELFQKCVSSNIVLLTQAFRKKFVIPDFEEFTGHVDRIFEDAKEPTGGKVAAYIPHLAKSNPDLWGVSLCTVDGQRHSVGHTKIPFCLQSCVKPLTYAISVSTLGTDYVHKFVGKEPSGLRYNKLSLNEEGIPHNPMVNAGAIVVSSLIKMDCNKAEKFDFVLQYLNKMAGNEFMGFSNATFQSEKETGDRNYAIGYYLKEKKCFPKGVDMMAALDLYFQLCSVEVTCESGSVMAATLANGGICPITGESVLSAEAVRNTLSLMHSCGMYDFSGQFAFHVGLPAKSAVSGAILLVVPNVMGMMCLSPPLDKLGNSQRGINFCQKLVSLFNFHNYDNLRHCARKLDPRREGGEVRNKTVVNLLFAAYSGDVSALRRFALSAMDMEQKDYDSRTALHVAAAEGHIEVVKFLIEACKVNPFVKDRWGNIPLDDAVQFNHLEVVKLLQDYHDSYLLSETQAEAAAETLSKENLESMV

glutaminase (hKGAΔ1) [3] = target: T4, glutaminase (hKGAΔ1) (Homo sapiens, UniProt O94925); format: biochemical; conditions: for Ki: Ki (competition studies), presence of glutamine; for Mode of inhibition: competition studies, average of 2–4 determinations
T4 sequence (O94925 124-669 limits assumed): T1 sequence (O94925 124-669 limits assumed)

glutaminase (hKGAΔ1) [4] = target: T4, glutaminase (hKGAΔ1); experiment: Inactivation studies: time-dependent inhibition of glutaminase; format: biochemical; conditions: for KI (inactivation): read-out: Ki (inactivation studies); for time- and concentration-dependence of glutaminase inactivation: in words
Solubility = format: physicochemical; conditions: in words, no data shown
[5] = in vivo; cited from earlier work
hKGAΔ1 (GLS1) = target: T5, hKGAΔ1 (GLS1) (Homo sapiens, UniProt O94925); experiment: Glutaminase activity, Amplex UltraRed fluorescent assay; format: biochemical
T5 sequence (O94925 124-669 limits assumed): T1 sequence (O94925 124-669 limits assumed)

[6] = read-out: Avg. IC50, Table 6, analogs of apomorphine

## O=C1c2ccccc2CN1c1ccccc1 [2-Phenyl isoindolin-1-one]
glutaminase
  IC50: > 100 µM

## O=c1c2ccccc2on1-c1ccccc1 [2-Phenylbenzo[d] isoxazol-3(2H)-one]
glutaminase
  IC50: 20 µM

## O=c1c2ccccc2sn1-c1ccccc1 [2-Phenylbenzo[d]isothiazol-3(2H)-one]
glutaminase
  IC50: 0.02 µM

## CN1CCc2cccc3c2C1Cc1ccc(O)c(O)c1-3 (stereo not shown) [Apomorphine hydrochloride, 5,6,6a,7-tetrahydro-6-methyl-4H-dibenzo[de,g] quinoline-10,11-diol]
[1]
  IC50: 1 µM
[2]
  IC50: 0.3 µM
Glutaminase (hKGAΔ1) [3]
  Ki: 2 µM
  Mode of inhibition: Competitive
Glutaminase (hKGAΔ1) [3]; listed as apomorphine
  Mode of inhibition: competitive inhibition
Glutaminase (hKGAΔ1) [4]
  kinact/KI: 13200 M⁻¹ s⁻¹
  KI (inactivation): 0.004 µM
Glutaminase (hKGAΔ1) [4]; rate constant of inactivation
  kinact: 5.56e-05 s⁻¹
glutaminase
  IC50: 0.6 µM
Solubility
  solubility relative to BPTES: more soluble than BPTES

## O=C(Cc1ccccc1)Nc1nnc(CCSCCc2nnc(NC(=O)Cc3ccccc3)s2)s1 [BPTES, bis-2-(5-phenylacetimido-1,2,4-thiadiazol-2-yl)ethyl sulfide]
[5]
  bioavailability: low bioavailability

## COc1ccc2cc3[n+](cc2c1OC)CCc1cc2c(cc1-3)OCO2 [Berberine chloride, 5,6-dihydro-9,10-dimethoxy-benzo[g]-[1,3] benzodioxolo[5,6-a]quinolizinium]
glutaminase
  IC50: > 100 µM
  retention of biological (glutaminase) activity: did not maintain activity

## COc1ccc2c(c[n+](C)c3c4cc5c(cc4ccc23)OCO5)c1OC [Chelerythrine chloride, 1,2-dimethoxy-N-methyl[1,3]benzodioxolo[5,6-c]phenanthridinium]
hKGAΔ1 (GLS1)
  IC50: 0.03 µM
[1]
  IC50: 0.07 µM
[2]
  IC50: 0.3 µM
  activity against GLS2 (mLGA) relative to GLS1 isoforms: 5 to 10 fold
Glutaminase (hKGAΔ1) [3]
  Mode of inhibition: Competitive
Glutaminase (hKGAΔ1) [3]; listed as chelerythrine
  Mode of inhibition: competitive inhibition
Glutaminase (hKGAΔ1) [4]
  kinact/KI: 29200 M⁻¹ s⁻¹
  KI (inactivation): 0.03 µM
Glutaminase (hKGAΔ1) [4]; rate constant of inactivation
  kinact: 0.000958 s⁻¹
glutaminase
  IC50: 0.03 µM
Solubility
  solubility relative to BPTES: more soluble than BPTES

## [N-]=[N+]=CC(=O)CC[C@H](N)C(=O)O [DON, 6-diazo-5-oxo-L-norleucine]
Glutaminase (hKGAΔ1) [3]
  Mode of inhibition: Time-dependent
Glutaminase (hKGAΔ1) [4]
  kinact/KI: 2.53 M⁻¹ s⁻¹
  time- and concentration-dependence of glutaminase inactivation: both concentration and time of incubation dependent; also recorded: time-dependent and irreversible
  KI (inactivation): 6 µM
Glutaminase (hKGAΔ1) [4]; rate constant of inactivation
  kinact: 1.39e-05 s⁻¹

## O=c1c2ccccc2[se]n1-c1ccccc1 [Ebselen, 2-phenyl-1,2-benzisoselenazol-3[2H]-one]
hKGAΔ1 (GLS1)
  IC50: 0.008 µM
[1]
  IC50: 0.02 µM
[2]
  IC50: 0.1 µM
  activity against GLS2 (mLGA) relative to GLS1 isoforms: 5 to 10 fold
Glutaminase (hKGAΔ1) [3]
  Ki: ~0.015 µM and 0.015 µM
  Mode of inhibition: Mixed non-competitive
Glutaminase (hKGAΔ1) [3]; as the concentration of inhibitor was increased
  decrease in Vmax: 6 fold
Glutaminase (hKGAΔ1) [3]; listed as ebselen
  Mode of inhibition: mixed non-competitive inhibition
Glutaminase (hKGAΔ1) [4]
  kinact: 0.000367 s⁻¹
  kinact/KI: 25200 M⁻¹ s⁻¹
  time- and concentration-dependence of glutaminase inactivation: dependent on both concentration and time of incubation
  KI (inactivation): ~0.014 µM and 0.014 µM
Glutaminase (hKGAΔ1) [4]; rate constant of inactivation
  kinact: 0.000364 s⁻¹
Solubility
  solubility relative to BPTES: more soluble than BPTES

## COc1cc2c[n+](C)c3c4cc5c(cc4ccc3c2cc1OC)OCO5 [Nitidine chloride, 2,3-dimethoxy-N-methyl[1,3]benzodioxolo[5,6-c]phenanthridinium]
glutaminase
  IC50: 9 µM
glutaminase; listed as nitidine
  retention of biological (glutaminase) activity: retained
glutaminase; listed as nitidine chloride
  retention of biological (glutaminase) activity: retained biological activity

## c1cc2c(cnc3c4cc5c(cc4ccc23)OCO5)c2c1OCO2 [Norsanguinarine chloride, [1,3]-benzodioxolo[5,6-c]-1,3-dioxolo[4,5-i]phenanthridine]
glutaminase
  IC50: > 100 µM
  retention of biological (glutaminase) activity: biological activity was lost

## C[n+]1cc2c3c(ccc2c2ccc4cc5c(cc4c21)OCO5)OCO3 [Sanguinarine chloride, 13-methyl-[1,3]-benzodioxolo[5,6-c]-1,3-dioxolo[4,5-i]phenanthridinium]
glutaminase
  IC50: 0.1 µM
glutaminase; listed as sanguinarine
  retention of biological (glutaminase) activity: retained
glutaminase; listed as sanguinarine chloride
  retention of biological (glutaminase) activity: retained biological activity

## CN1CCc2cccc3c2[C@@H]1Cc1ccc(O)c(O)c1-3 [S–Apomorphine hydrochloride]
glutaminase; [6]
  IC50: 0.4 µM

## R(−)-Apocodeine hydrochloride
glutaminase; hydroxyl replaced with methoxy
  loss of activity relative to apomorphine: 10 fold
glutaminase; [6]
  IC50: 4 µM

## R(−)-Propylnorapomorphine hydrochloride
glutaminase; [6]
  IC50: 0.9 µM
